Patent US5025011A, “Fused pyridines active on the cardiovascular system” (SIMES, Societa Italiana Medicinali e Sintetici S.p.A., priority 1988, dated 1991)

Tests used:
[1] = system: rabbit mesenteric artery; experiment: Calcium antagonist activity: antagonizing the effect of Ca++ on preparations of rabbit mesenteric artery in Krebs depolarizer; assay type: cell-based; conditions: Oryctolagus cuniculus, Ca++ submaximal concentration 3 mM
Description: Calcium antagonist activity of the compounds of formula I has been tested as capability of antagonizing the effect of Ca^++ submaximal concentrations (3 mM) on preparations of rabbit mesenteric artery in Krebs depolarizer, prepared according to Towart "J. Cardiovasc. Pharmacol." 4, 895, (1982).

[2] = target: T1, mouse heart beta1 receptors (Mus musculus, UniProt P34971); experiment: beta-blocking activity: binding test towards beta1 heart receptors in mouse
T1 construct: beta1 heart receptors; from tissue; host or cells: mouse heart
Description: (§1) Moreover the beta-blocking activity has been tested with i binding tests both towards beta1 heart receptors and beta2 lung receptors in mouse according to methods described in J. Biol. Chem., 253, 5090, (1978) and Br. J. Pharmacol., 68, 57, (1980).

[3] = target: T2, mouse lung beta2 receptors (Mus musculus, UniProt P18762); experiment: beta-blocking activity: binding test towards beta2 lung receptors in mouse
T2 construct: beta2 lung receptors in mouse; from tissue; host or cells: mouse lung
Description: as §1

T1 sequence (P34971 whole entry): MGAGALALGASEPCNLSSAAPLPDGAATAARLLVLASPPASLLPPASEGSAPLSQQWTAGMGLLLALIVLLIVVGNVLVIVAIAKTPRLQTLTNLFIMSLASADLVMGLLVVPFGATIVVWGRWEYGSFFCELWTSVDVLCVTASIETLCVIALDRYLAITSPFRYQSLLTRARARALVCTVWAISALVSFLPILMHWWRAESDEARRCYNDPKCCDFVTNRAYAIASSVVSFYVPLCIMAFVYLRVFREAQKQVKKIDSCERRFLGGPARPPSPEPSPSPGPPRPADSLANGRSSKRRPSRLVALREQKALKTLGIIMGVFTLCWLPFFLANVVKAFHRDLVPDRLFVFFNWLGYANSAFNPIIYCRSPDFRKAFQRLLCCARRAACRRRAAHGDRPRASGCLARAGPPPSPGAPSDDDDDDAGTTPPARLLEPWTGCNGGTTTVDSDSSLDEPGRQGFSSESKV
T2 sequence (P18762 whole entry): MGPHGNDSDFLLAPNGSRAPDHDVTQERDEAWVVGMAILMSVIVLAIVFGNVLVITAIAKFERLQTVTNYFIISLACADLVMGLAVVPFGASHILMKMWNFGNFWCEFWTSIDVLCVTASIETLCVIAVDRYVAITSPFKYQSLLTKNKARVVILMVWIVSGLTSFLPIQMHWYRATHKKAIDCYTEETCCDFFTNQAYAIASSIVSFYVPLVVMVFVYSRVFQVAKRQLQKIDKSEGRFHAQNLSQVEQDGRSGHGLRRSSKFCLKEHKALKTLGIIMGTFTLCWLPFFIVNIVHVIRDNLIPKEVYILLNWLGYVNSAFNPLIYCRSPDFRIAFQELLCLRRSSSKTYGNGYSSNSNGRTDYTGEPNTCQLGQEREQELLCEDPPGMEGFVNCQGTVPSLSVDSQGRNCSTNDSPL

Compound: CCOC(=O)C1=C(C)Nc2cnn(CC(C)(C)NCC(O)COc3ccccc3OC)c(=O)c2C1c1cccc([N+](=O)[O-])c1 (stereo not drawn) [Compound B]
- IC50 [1]: 770 nM
- Ki [2]: 142 nM
- Ki [3]: 71 nM

Compound: CCOC(=O)C1=C(C)Nc2cnn(CCNCC(O)COc3ccccc3OC)c(=O)c2C1c1cccc([N+](=O)[O-])c1 (stereo not drawn) [Compound A, Ethyl 2-methyl-4-(3-nitrophenyl)-5-oxo-6-(2-(2-hydroxy-3-(2-methoxyphenoxy)-propylamino)-ethyl)-1,4,5,6-tetrahydro-pyrido(2,3-d)pyridaxine-3-carboxylate]
- IC50 [1]: 240 nM
- Ki [2]: 345 nM
- Ki [3]: 287 nM
